This passage reports Kd results from article PMC3527483, “Phospholipid Mediated Activation of Calcium Dependent Protein Kinase 1 (CaCDPK1) from Chickpea: A New Paradigm of Regulation” (PLoS ONE, 2012).

This test deals with T1, CaCDPK1 (Cicer arietinum, UniProt Q7XZK5).
T1 construct: gene CDPK1; full ORF in pRSET A (His-tag), expressed in Escherichia coli BL21, Ni-NTA purified under native conditions; tag removal not mentioned
The test is described as follows: intrinsic tryptophan fluorescence quenching at […] nm. The format is binding. The conditions noted are these: PA vesicles (sonicated), 1 mM CaCl2, pH 7.2, 25 °C, 1 µM protein; half-maximal fluorescence change; activator.

T1 sequence (Q7XZK5 1-556): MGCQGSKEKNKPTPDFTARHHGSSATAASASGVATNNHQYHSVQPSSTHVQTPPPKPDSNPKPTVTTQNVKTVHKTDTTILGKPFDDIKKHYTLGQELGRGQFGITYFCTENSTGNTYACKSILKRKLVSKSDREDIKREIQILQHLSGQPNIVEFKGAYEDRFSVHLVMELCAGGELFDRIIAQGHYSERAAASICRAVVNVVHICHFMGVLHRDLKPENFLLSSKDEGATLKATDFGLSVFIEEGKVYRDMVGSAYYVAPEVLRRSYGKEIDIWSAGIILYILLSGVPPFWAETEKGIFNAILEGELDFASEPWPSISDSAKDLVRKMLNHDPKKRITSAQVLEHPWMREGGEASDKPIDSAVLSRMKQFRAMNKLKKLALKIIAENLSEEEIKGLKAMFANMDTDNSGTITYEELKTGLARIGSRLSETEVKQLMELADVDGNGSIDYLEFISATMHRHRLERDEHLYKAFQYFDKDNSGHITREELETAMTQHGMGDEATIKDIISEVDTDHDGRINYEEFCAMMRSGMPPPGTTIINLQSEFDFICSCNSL

Consider “1,2-diacyl-sn-gylcero-3-P sodium salt [PA]”, for which binding was put at a Kd of 335 nM.
